This assay addresses T1, T1R2/T1R3 taste receptor (Homo sapiens, UniProt Q8TE23).
T1 sequence (Q8TE23 20-839): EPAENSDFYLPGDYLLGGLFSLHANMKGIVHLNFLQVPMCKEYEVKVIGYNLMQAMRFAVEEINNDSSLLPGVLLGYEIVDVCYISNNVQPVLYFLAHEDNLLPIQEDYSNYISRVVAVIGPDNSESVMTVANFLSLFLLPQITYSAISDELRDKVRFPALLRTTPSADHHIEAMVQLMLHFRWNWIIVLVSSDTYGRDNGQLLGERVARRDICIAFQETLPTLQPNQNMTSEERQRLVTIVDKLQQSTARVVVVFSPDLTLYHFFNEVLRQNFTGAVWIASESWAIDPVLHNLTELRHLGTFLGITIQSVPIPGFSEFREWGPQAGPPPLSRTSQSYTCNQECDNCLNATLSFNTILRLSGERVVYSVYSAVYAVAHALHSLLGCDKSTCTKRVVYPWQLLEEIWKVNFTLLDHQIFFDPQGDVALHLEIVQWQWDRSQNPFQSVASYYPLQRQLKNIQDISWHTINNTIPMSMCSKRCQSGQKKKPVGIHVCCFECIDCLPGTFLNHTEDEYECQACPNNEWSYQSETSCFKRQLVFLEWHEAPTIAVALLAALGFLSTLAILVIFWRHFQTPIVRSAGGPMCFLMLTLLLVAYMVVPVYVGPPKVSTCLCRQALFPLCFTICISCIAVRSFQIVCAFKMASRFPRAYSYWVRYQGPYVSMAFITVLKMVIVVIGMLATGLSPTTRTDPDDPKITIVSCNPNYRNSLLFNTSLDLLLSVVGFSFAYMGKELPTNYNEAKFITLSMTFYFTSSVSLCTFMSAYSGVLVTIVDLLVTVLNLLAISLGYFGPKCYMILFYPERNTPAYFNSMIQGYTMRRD
T1 sequence (Q7RTX0 21-852 partner): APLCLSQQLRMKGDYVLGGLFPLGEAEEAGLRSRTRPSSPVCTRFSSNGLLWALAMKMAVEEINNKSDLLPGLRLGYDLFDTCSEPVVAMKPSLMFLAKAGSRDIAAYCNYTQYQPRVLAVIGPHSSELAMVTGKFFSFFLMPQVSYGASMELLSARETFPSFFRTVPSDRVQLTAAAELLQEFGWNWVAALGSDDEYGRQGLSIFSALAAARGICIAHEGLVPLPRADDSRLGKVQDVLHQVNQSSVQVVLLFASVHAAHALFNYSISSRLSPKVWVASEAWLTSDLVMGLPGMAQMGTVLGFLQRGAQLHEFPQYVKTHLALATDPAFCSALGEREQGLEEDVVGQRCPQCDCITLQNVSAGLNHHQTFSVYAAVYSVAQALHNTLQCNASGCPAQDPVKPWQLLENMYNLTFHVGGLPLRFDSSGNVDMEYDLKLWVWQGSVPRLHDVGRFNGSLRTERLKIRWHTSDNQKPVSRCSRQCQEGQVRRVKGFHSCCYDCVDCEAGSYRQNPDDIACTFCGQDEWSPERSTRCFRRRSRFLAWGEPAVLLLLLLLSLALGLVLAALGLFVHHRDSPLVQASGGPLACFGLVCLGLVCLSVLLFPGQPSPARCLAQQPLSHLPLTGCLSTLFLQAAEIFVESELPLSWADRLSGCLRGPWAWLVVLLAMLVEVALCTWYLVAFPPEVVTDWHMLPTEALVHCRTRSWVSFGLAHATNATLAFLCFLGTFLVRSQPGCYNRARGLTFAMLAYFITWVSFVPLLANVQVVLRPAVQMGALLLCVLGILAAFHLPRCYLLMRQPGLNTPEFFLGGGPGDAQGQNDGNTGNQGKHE
The assay can be described thus: Receptor-based assay: sweetener EC50 alone and with test compound (enhancement ratio). Particulars: for Sucralose Enhancement EC50 Ratio: sweetener sucralose; for Sucrose Enhancement EC50 Ratio: sweetener sucrose; for Fructose Enhancement EC50 Ratio: sweetener fructose. In kind it is cell-based. Put shortly:
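Sucrose, sucralose or fructose EC50 measured on human T1R2/T1R3, alone and with 3, 10 or 50 μM test compound. Enhancement is the EC50 ratio without/with compound, binned A >20, B 10-20, C >1 to <10.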

The structures appear in SMILES notation.

The results in this text go back to US11945813B2, “5-substituted 4-amino-1H-benzo[c][1,2,6]thiadiazine 2,2-dioxides and formulations and uses thereof” (Firmenich Incorporated, priority 2018, dated 2024).

`NC1=NS(=O)(=O)Nc2cccc(OC[C@H]3CCCN(c4cccc(C(=O)NCC5CCCCC5)n4)C3)c21` [Compound 418]: the “Sucralose Enhancement EC50 Ratio” value reads like this: (10 μM test compound) “B (A “B” value indicates an enhancement ratio from 10 to 20)”; (50 μM test compound) “A (An “A” value indicates an enhancement ratio of greater than 20)”. Also, the “Sucrose Enhancement EC50 Ratio” value (3 μM test compound) was “C (A “C” value indicates an enhancement ratio greater than 1 and less than 10)”; the “Sucrose Enhancement EC50 Ratio” value (10 μM test compound) is “C (A “C” value indicates an enhancement ratio greater than 1 and less than 10)”; the “Sucrose Enhancement EC50 Ratio” value (50 μM test compound) is “C (A “C” value indicates an enhancement ratio greater than 1 and less than 10)”.
Consider `CNC(=O)c1ccc(N2CCC[C@H](COc3cccc4c3C(N)=NS(=O)(=O)N4)C2)nc1` [Compound 500], for which the “Sucralose Enhancement EC50 Ratio” value is “A (An “A” value indicates an enhancement ratio of greater than 20)” (10 μM test compound) and “A (An “A” value indicates an enhancement ratio of greater than 20)” (50 μM test compound). Also, the “Sucrose Enhancement EC50 Ratio” value (3 μM test compound) is “C (A “C” value indicates an enhancement ratio greater than 1 and less than 10)”; the “Sucrose Enhancement EC50 Ratio” value (10 μM test compound) is “C (A “C” value indicates an enhancement ratio greater than 1 and less than 10)”; the “Sucrose Enhancement EC50 Ratio” value (50 μM test compound) was “C (A “C” value indicates an enhancement ratio greater than 1 and less than 10)”.
On to `CCNC(=O)c1ccc(N2CCC[C@H](COc3cccc4c3C(N)=NS(=O)(=O)N4)C2)nc1` [Compound 501], for which the “Fructose Enhancement EC50 Ratio” value (10 μM test compound) was “C (A “C” value indicates an enhancement ratio greater than 1 and less than 10)”; the “Fructose Enhancement EC50 Ratio” value (50 μM test compound) is “C (A “C” value indicates an enhancement ratio greater than 1 and less than 10)”. Moreover, the “Sucralose Enhancement EC50 Ratio” value is, setting by setting: (10 μM test compound) “A (An “A” value indicates an enhancement ratio of greater than 20)”; (50 μM test compound) “A (An “A” value indicates an enhancement ratio of greater than 20)”. The “Sucrose Enhancement EC50 Ratio” value is “C (A “C” value indicates an enhancement ratio greater than 1 and less than 10)” (3 μM test compound); “C (A “C” value indicates an enhancement ratio greater than 1 and less than 10)” (10 μM test compound); “C (A “C” value indicates an enhancement ratio greater than 1 and less than 10)” (50 μM test compound).
Turning to `CCCNC(=O)c1ccc(N2CCC[C@H](COc3cccc4c3C(N)=NS(=O)(=O)N4)C2)nc1` [Compound 502], under “10 μM test compound”, the “Fructose Enhancement EC50 Ratio” value is “C (A “C” value indicates an enhancement ratio greater than 1 and less than 10)”; the “Sucralose Enhancement EC50 Ratio” value is recorded as “A (An “A” value indicates an enhancement ratio of greater than 20)”; the “Sucrose Enhancement EC50 Ratio” value was “C (A “C” value indicates an enhancement ratio greater than 1 and less than 10)”. Besides, where the note is “50 μM test compound”, the “Fructose Enhancement EC50 Ratio” value is “C (A “C” value indicates an enhancement ratio greater than 1 and less than 10)”; the “Sucralose Enhancement EC50 Ratio” value was “A (An “A” value indicates an enhancement ratio of greater than 20)”; the “Sucrose Enhancement EC50 Ratio” value is “C (A “C” value indicates an enhancement ratio greater than 1 and less than 10)”. In addition, the “Sucrose Enhancement EC50 Ratio” value (3 μM test compound) is “C (A “C” value indicates an enhancement ratio greater than 1 and less than 10)”.
`NC1=NS(=O)(=O)Nc2cccc(OC[C@H]3CCCN(c4ccc(C(=O)NCCO)cn4)C3)c21` [Compound 503]: under “10 μM test compound”, the “Sucralose Enhancement EC50 Ratio” value is “A (An “A” value indicates an enhancement ratio of greater than 20)”. The “Sucrose Enhancement EC50 Ratio” value was “C (A “C” value indicates an enhancement ratio greater than 1 and less than 10)” (3 μM test compound); “C (A “C” value indicates an enhancement ratio greater than 1 and less than 10)” (10 μM test compound); “C (A “C” value indicates an enhancement ratio greater than 1 and less than 10)” (50 μM test compound).
For `COCCNC(=O)c1ccc(N2CCC[C@H](COc3cccc4c3C(N)=NS(=O)(=O)N4)C2)nc1` [Compound 504], where the note is “50 μM test compound”, the “Fructose Enhancement EC50 Ratio” value is “C (A “C” value indicates an enhancement ratio greater than 1 and less than 10)”; the “Sucralose Enhancement EC50 Ratio” value is given as “A (An “A” value indicates an enhancement ratio of greater than 20)”; the “Sucrose Enhancement EC50 Ratio” value is “C (A “C” value indicates an enhancement ratio greater than 1 and less than 10)”. For the setting “10 μM test compound”, the “Sucralose Enhancement EC50 Ratio” value is reported as “A (An “A” value indicates an enhancement ratio of greater than 20)”; the “Sucrose Enhancement EC50 Ratio” value was “C (A “C” value indicates an enhancement ratio greater than 1 and less than 10)”. Moreover, the “Sucrose Enhancement EC50 Ratio” value (3 μM test compound) is “C (A “C” value indicates an enhancement ratio greater than 1 and less than 10)”.
Consider `CN(C)CCNC(=O)c1ccc(N2CCC[C@H](COc3cccc4c3C(N)=NS(=O)(=O)N4)C2)nc1` [Compound 505], for which, where the note is “50 μM test compound”, the “Fructose Enhancement EC50 Ratio” value is “C (A “C” value indicates an enhancement ratio greater than 1 and less than 10)”; the “Sucralose Enhancement EC50 Ratio” value is reported as “A (An “A” value indicates an enhancement ratio of greater than 20)”; the “Sucrose Enhancement EC50 Ratio” value is “C (A “C” value indicates an enhancement ratio greater than 1 and less than 10)”. Also, for the setting “10 μM test compound”, the “Sucralose Enhancement EC50 Ratio” value was “C (A “C” value indicates an enhancement ratio greater than 1 and less than 10)”; the “Sucrose Enhancement EC50 Ratio” value was “C (A “C” value indicates an enhancement ratio greater than 1 and less than 10)”. For the same molecule, under “3 μM test compound”, the “Sucrose Enhancement EC50 Ratio” value was “C (A “C” value indicates an enhancement ratio greater than 1 and less than 10)”.
Consider `CC(C)NC(=O)c1ccc(N2CCC[C@H](COc3cccc4c3C(N)=NS(=O)(=O)N4)C2)nc1` [Compound 506], for which the “Sucralose Enhancement EC50 Ratio” value was “A (An “A” value indicates an enhancement ratio of greater than 20)” (10 μM test compound) and “A (An “A” value indicates an enhancement ratio of greater than 20)” (50 μM test compound). The “Sucrose Enhancement EC50 Ratio” value is “C (A “C” value indicates an enhancement ratio greater than 1 and less than 10)” (3 μM test compound); “C (A “C” value indicates an enhancement ratio greater than 1 and less than 10)” (10 μM test compound); “C (A “C” value indicates an enhancement ratio greater than 1 and less than 10)” (50 μM test compound).
As to `NC1=NS(=O)(=O)Nc2cccc(OC[C@H]3CCCN(c4ccc(C(=O)NC5CC5)cn4)C3)c21` [Compound 507], under “50 μM test compound”, the “Fructose Enhancement EC50 Ratio” value is “C (A “C” value indicates an enhancement ratio greater than 1 and less than 10)”. Further, the “Sucralose Enhancement EC50 Ratio” value is, setting by setting: (10 μM test compound) “A (An “A” value indicates an enhancement ratio of greater than 20)”; (50 μM test compound) “A (An “A” value indicates an enhancement ratio of greater than 20)”. Besides, the “Sucrose Enhancement EC50 Ratio” value reads like this: (3 μM test compound) “C (A “C” value indicates an enhancement ratio greater than 1 and less than 10)”; (10 μM test compound) “C (A “C” value indicates an enhancement ratio greater than 1 and less than 10)”; (50 μM test compound) “C (A “C” value indicates an enhancement ratio greater than 1 and less than 10)”.
For the molecule `NC1=NS(=O)(=O)Nc2cccc(OC[C@H]3CCCN(c4ccc(C(=O)NC5CCCC5)cn4)C3)c21` [Compound 508], for the setting “50 μM test compound”, the “Fructose Enhancement EC50 Ratio” value was “C (A “C” value indicates an enhancement ratio greater than 1 and less than 10)”; the “Sucralose Enhancement EC50 Ratio” value is “A (An “A” value indicates an enhancement ratio of greater than 20)”; the “Sucrose Enhancement EC50 Ratio” value is “C (A “C” value indicates an enhancement ratio greater than 1 and less than 10)”. For the same molecule, where the note is “10 μM test compound”, the “Sucralose Enhancement EC50 Ratio” value was “B (A “B” value indicates an enhancement ratio from 10 to 20)”; the “Sucrose Enhancement EC50 Ratio” value was “C (A “C” value indicates an enhancement ratio greater than 1 and less than 10)”. For the same molecule, under “3 μM test compound”, the “Sucrose Enhancement EC50 Ratio” value is “C (A “C” value indicates an enhancement ratio greater than 1 and less than 10)”.
